Assay results taken from patent US5567710A, “Polycyclic fused ring modulators of acetylcholine receptors” (SIBIA Neurosciences, Inc., priority 1994, dated 1996).
Like-named read-outs stand apart in the source and are kept apart here.

Experiments:
[1] = test system: haloperidol-induced catalepsy in rats; assay: Haloperidol-induced catalepsy model in rats; assay type: in vivo, rat; details: s.c.; for Reduction in catalepsy (maximum): haloperidol 2 mg/kg i.p., vs haloperidol alone
rat striatal slices = assay type: cell-based
Procedure: (§1) Measurement of ^3 H-dopamine release from rat striatal slices was performed according to the method of Sacaan et al. (J. Neurochem. 59:245 (1992)). Male Sprague-Dawley rats (250-300 g) were decapitated and the striata dissected quickly on a cold glass surface. The tissue was chopped to a thickness of 300 μm with a McIlwain tissue chopper. After chopping again at right angles the tissue was dispersed and incubated for 10 min. at 37° C. in oxygenated Kreb's buffer. ^3 H-Dopamine (40 Ci/mmol, NEN-Dupont, Boston, Mass.) was added (50 nM) and the tissue was incubated for 30 min. in Kreb's buffer containing 10 μM pargyline and 0.5 mM ascorbic acid. Aliquots of the minced tissue were then transferred to chambers of a Brandel Superfusion system in which the tissue was supported on Whatman GF/B filter discs. The tissue was then superfused with buffer at a constant flow rate of 0.3 ml/min. by means of a Brandel peristaltic pump. The perfusate was collected in plastic scintillation vials in 3-min. fractions, and the radioactivity was estimated by scintillation spectrophotometry. The superfusate for the first 120 min. was discarded. After two baseline fractions had been collected, the superfusion buffer was switched to fresh buffer with or without compound of interest. At the end of the experiment the filter and the tissue were removed, and the ^3 H-dopamine content was estimated after extraction into scintillation fluid. The fractional efflux of tritium was estimated as the amount of radioactivity in the perfusate fraction relative to the total amount in the tissue.
(§2) The results of studies of the effects of an invention compound (as compared to the effect of nicotine and cytisine) on the release of neurotransmitters from rat brain slices are presented in Table II. The results presented in the Table are expressed as the percent fractional release.

[2] = test system: rats with unilateral 6-hydroxydopamine lesions of the nigro-striatal dopamine pathway; assay type: in vivo, rat
Procedure: The effects of invention compounds on turning behavior of rats with unilateral 6-hydroxydopamine lesions in the striatum were evaluated using the procedure of Ungerstedt and Arbutknott Brain Res. 24:485-493 (1970). Rats were injected with desmethylimipramine (25 mg/kg i.p.) and pargyline (75 mg/kg i.p.) approximately 30 minutes prior to 6-hydroxydopamine infusion into the substantia nigra. Results reported in the Table are measured as the maximal rotation per 15-min interval toward the lesioned side of the striatum.

tail flick in rats = assay type: in vivo, rat
Procedure: The effects of invention compounds on latency in the time between stimulus application and tail flick in rats were evaluated using the procedure of D'Amour and Smith, J. Pharmacol. Exp. Ther. 72:74-79 (1941). Male rats (150-200g; Harlan, San Diego, Calif.) were acclimated to investigator's handling by taking two-to-three tail-flick latencies. The animals were held by hand such that the tail is placed in the groove of the Tail-Flick meter (IITC Life Sciences, Woodland Hill, Calif., Model 33). The light was focused 3-4 cm from the tip of the tail by a foot-operated switch. The intensity of the incident beam was adjusted to give baseline latencies in the range of 1-4 seconds. Groups of 5-6 rates were used in each treatment. The tail-flick latencies were recorded to the nearest 0.1 seconds and a cut-off time of 10 seconds was established to prevent thermal injury. The results of one such study are shown in Table V. Results presented in the Table are expressed as the percent of the maximum latency to remove the tail from the light beam. Maximum latency is 10 seconds.

rat thalamus slices = assay type: cell-based
Procedure: as §1
(§3) Following essentially the same procedure as set forth in the preceding paragraph, the amount of ^3 H-norepinephrine released from rat hippocampus and thalamus slices superfused with buffer containing (or lacking) compounds of interest was also measured.
as §2

rat hippocampus slices = assay type: cell-based
Procedure: as §1, §3, §2

[3] = biological target: acetylcholine receptor (rat cerebral membranes); assay type: binding; details: 3H-QNB displacement
[4] = biological target: T1, acetylcholine receptor (rat cerebral membranes) (Rattus norvegicus, UniProt P09483+P12390); assay: 3H-cyt (cytisine) displacement from rat cerebral membranes; assay type: binding; details: 3H-cyt displacement
T1 construct: Synaptic membranes were prepared by homogenizing the cortical tissue; from tissue; host or cells: cerebral cortex synaptic membranes of male Sprague-Dawley rats
T1 sequence (P09483 31-630): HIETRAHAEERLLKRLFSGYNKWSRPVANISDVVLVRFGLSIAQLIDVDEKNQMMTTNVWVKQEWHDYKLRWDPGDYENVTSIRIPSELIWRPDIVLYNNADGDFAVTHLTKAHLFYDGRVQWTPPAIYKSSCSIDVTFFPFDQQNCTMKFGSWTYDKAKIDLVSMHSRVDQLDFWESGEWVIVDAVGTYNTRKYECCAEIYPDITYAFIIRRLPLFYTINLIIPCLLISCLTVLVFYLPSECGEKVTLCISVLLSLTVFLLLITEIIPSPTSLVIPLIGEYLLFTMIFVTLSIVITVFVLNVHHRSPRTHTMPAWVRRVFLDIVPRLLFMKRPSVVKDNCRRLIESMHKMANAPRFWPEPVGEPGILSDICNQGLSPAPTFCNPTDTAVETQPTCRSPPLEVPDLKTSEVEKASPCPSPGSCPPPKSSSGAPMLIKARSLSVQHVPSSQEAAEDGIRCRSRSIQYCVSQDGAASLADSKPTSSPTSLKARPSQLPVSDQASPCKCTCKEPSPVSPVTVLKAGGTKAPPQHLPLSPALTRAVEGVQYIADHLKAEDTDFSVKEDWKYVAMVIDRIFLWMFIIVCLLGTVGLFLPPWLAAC
T1 sequence (P12390 25-500): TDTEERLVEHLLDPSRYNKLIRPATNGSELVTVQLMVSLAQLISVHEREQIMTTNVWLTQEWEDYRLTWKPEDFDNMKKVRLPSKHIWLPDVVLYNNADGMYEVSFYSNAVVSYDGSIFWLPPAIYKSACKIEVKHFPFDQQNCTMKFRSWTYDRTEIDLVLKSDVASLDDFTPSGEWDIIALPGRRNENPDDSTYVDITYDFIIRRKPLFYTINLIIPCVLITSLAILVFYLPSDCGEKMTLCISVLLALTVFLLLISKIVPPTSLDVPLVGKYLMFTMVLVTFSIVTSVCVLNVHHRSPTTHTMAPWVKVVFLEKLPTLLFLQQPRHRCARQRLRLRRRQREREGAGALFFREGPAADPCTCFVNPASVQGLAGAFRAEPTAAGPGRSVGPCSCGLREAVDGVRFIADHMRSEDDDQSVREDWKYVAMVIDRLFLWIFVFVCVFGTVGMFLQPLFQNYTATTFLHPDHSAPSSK

[5] = biological target: T1, acetylcholine receptor (rat cerebral membranes); assay: 3H-MCC (methylcarbamylcholine) displacement from rat cerebral membranes; assay type: binding; details: 3H-MCC displacement
[6] = biological target: T1, acetylcholine receptor (rat cerebral membranes); assay: 3H-nicotine displacement from rat cerebral membranes; assay type: binding; details: 3H-nicotine (1.9 nM) displacement, atropine 3 μM

For `CN1CCCC1c1cccnc1` (centres unmarked) [NICOTINE, nicotine, reference compound], the “Reduction in catalepsy (maximum)” value ([1]; 2 mg/kg) was 21%, the “3H-dopamine striatum, percent fractional release” value (rat striatal slices) was 1.80 and the “Range of activity (maximal rotation per 15-min interval toward the lesioned side of the striatum)” value ([2]; rat, in vivo) was 6-50. The “% maximum possible effect” value (tail flick in rats; rat, in vivo) was 38%, the Duration of effect (tail flick in rats; rat, in vivo) was 60 min and the “3H-norepinephrine thalamus, percent fractional release” value (rat thalamus slices) was 2.9. The “3H-norepinephrine hippocampus, percent fractional release” value (rat hippocampus slices) was 4.1.
In the case of `CN1CC[C@]23c4c5ccc(O)c4O[C@H]2[C@@H](O)C=C[C@H]3[C@H]1C5` [Morphine, reference compound], the “% maximum possible effect” value (tail flick in rats; 2 mg/kg, s.c., maximum latency 10 seconds) is reported as 100%.
For `O=c1cccc2n1C[C@@H]1CNC[C@H]2C1` [CYTISINE, cytisine], the “3H-dopamine striatum, percent fractional release” value (rat striatal slices; 100 μM) was 0.96%, the “3H-norepinephrine thalamus, percent fractional release” value (rat thalamus slices; 100 μM) was 2.9% and the “3H-norepinephrine hippocampus, percent fractional release” value (rat hippocampus slices; 100 μM) was 4.3%.
With `CC(N)Cc1ccccc1` (centres unmarked) [AMPHETAMINE, reference compound] the “Range of activity (maximal rotation per 15-min interval toward the lesioned side of the striatum)” value ([2]; 5 mg/kg, s.c.) was 50-200 rotation per 15-min interval.
With `COc1cc2c(cn1)C1NCCC1CC2` (centres unmarked) the “Cataleptogenic effect of haloperidol in rats (in words)” value ([1]; 3 mg/kg) was “reduces the cataleptogenic effect of haloperidol in rats”, the “Reduction in catalepsy (maximum)” value ([1]; 3 mg/kg) was 34% and the IC50 [3] was 6 µM. For the same molecule, the “3H-dopamine striatum, percent fractional release” value (rat striatal slices; 300 μM) was 2.2%, the “Release of catecholamines from rat brain slices (in words)” value (rat striatal slices; striatum (dopamine), hippocampus and thalamus (norepinephrine)) was “selectively induces release of catecholamines in different brain regions” and the IC50 [4] was 5.4 µM. For the same molecule, the IC50 [5] was 0.8 µM, the IC50 [6] was 1.9 µM and the “Range of activity (maximal rotation per 15-min interval toward the lesioned side of the striatum)” value ([2]; 10 mg/kg, s.c.) was 9-50 rotation per 15-min interval. The “Turning towards the 6-hydroxydopamine-lesioned side (in words)” value ([2]; 10 mg/kg, s.c.) was “induces turning towards the 6-hydroxydopamine-lesioned side of the rat striatum”, the Duration of effect (tail flick in rats; 30 mg/kg, p.o.) was over 180 min and the “Latency between application of stimulus and tail-flick response (in words)” value (tail flick in rats; 30 mg/kg, p.o., as compared to nicotine) was “increased the latency period, as compared to nicotine”. For the same molecule, the “% maximum possible effect” value (tail flick in rats; 30 mg/kg, p.o., maximum latency 10 seconds) was 52%, the “Duration of effect versus morphine (in words)” value (tail flick in rats; rat, in vivo) was “longer duration than the effect of morphine” and the “3H-norepinephrine thalamus, percent fractional release” value (rat thalamus slices; 300 μM) was 2.2%. The “3H-norepinephrine hippocampus, percent fractional release” value (rat hippocampus slices; 300 μM) was 0.69%.
`c1cc2c(cn1)C1NCCC1CO2` (centres unmarked) gave an IC50 [4] of 2 µM, an IC50 [5] of 0.61 µM and an IC50 [6] of 0.51 µM.
`COc1cc2c(cn1)C1C(CC2)CCN1C` (centres unmarked) gave an IC50 [3] of 9 µM, an IC50 [4] of 27.5 µM and an IC50 [5] of 5.5 µM. The IC50 [6] was 10.7 µM.
